Laboratory results taken from ChEMBL document CHEMBL3392922, “MMV box screening in the Dd2 P. falciparum strain”.
pIC50: −log10 of the molar value.

test system: Plasmodium falciparum; test: MMV: IC50 determined against P. falciparum Dd2-luc strain using a Malaria Sybr Green I Fluorescence assay. Starting conditions were 1% trophozoite synchronised parasites at 2% haematocrit. Fluorescence detection completed after 48hr incubation at 37 degrees C under 1% O2, 3% CO2 and balance N2.; assay type: functional, organism-based; details: Dd2, 48 h

| Compound | pIC50 |
| --- | --- |
| CN1CCN(c2ccc(Nc3c4ccccc4nc4ccccc34)cc2)CC1 | 5.80 |
| COc1ccc(Nc2nc(N/N=C/c3ccc(O)cc3)nc(Nc3ccc([N+](=O)[O-])cc3)n2)cc1 | 5.81 |
| CN(C)CCCNc1c2ccccc2nc2ccccc12 | 6.63 |
| COc1ccc(C2c3ccc4ccccc4c3Oc3ncn(CCCN(C)C)c(=N)c32)cc1 (stereo not given) | 6.35 |
| c1ccc(/C2=N/c3ccccc3/N=C(/c3ccccc3)c3ccccc32)cc1 | 6.20 |
| COc1ccc(C2c3ccc4ccccc4c3Oc3ncn(CCCn4ccnc4)c(=N)c32)cc1OC (stereo not given) | 5.91 |
| CCOC(=O)c1cnc2ccc(CC)cc2c1O | 6.19 |
| CCN(CC)CCNc1ccnc2cc(Cl)ccc12 | 7.36 |
| O=C(Nc1ccc(Br)cc1)Nc1cccc(Cl)c1 | 5.45 |
| Cc1ccc(Nc2nc(-c3ccccn3)cs2)cc1 | 6.32 |
| CN(C)CCNc1cc(-c2ccccc2)nc2ccccc12 | 5.44 |
| Cc1cc(NCCN2CCCCC2)c2ccc3ccccc3c2n1 | 6.51 |
| O=C(NCc1ccco1)C1CCN(S(=O)(=O)c2ccc(Cl)cc2)CC1 | 6.06 |
| CCOc1ccc(N2C(N)=NC(N)=NC2(C)C)cc1 | 5.09 |
| COc1ccc2nc(C)cc(Nc3ccc(Cl)cc3)c2c1 | 5.93 |
| CCc1c(C)c(=N)c2ccccc2n1C | 5.56 |
| COc1ccc2nc(C)cc(Nc3cccc(O)c3)c2c1 | 6.03 |
| COc1cc2cc(C(=O)Nc3ccccc3)c(N)nc2cc1OC | 6.05 |
| Oc1ccc(-c2nc(-c3ccc4oc5ccc(-c6[nH]c(-c7ccc(O)cc7)nc6-c6ccccc6)cc5c4c3)c(-c3ccccc3)[nH]2)cc1 | 6.17 |
| CCOc1ccc(CN2CCN(CC(O)COc3ccc(OCC(O)CN4CCN(Cc5ccc(OCC)cc5)CC4)cc3)CC2)cc1 (stereo not given) | 6.02 |
| CCN(CC)CCn1c(=N)n(CC(O)c2ccc(Cl)c(Cl)c2)c2ccccc21 (stereo not given) | 6.39 |
| Brc1ccc(Nc2nc3ccccc3nc2Nc2ccc(Br)cc2)cc1 | 5.82 |
| COc1cccc(C=Cc2nc(=O)c3ccccc3o2)c1OC | 6.37 |

| Compound | pIC50 |
| --- | --- |
| Cc1ccnc(NC(c2cccc(OCc3ccccc3)c2)c2ccc3cccnc3c2O)c1 (stereo not given) | 6.02 |
| COc1ccc(CCn2c(=N)c(C(=O)NCc3cccnc3)cc3c(=O)n4cccc(C)c4nc32)cc1 | 6.57 |
| CCCN(CCC)CC(O)COc1ccccc1C(=O)Nc1ccccc1 (stereo not given) | 6.68 |
| Cc1ccc(CSCc2ccc(C(=O)NC3CC3)o2)cc1 | 6.26 |
| Cc1cc(Nc2ccc(OCc3ccccc3)cc2)nc2cc(O)ccc12 | 6.53 |
| CN1CCN(c2c3c(c(C#N)c4nc5ccccc5n24)CCC3)CC1 | 5.83 |
| CCN(CC)CCNc1ccnc2cc3ccccc3cc12 | 6.33 |
| CCOc1ccc2nc(C)cc(Nc3ccc(N(C)C)cc3)c2c1 | 6.00 |
| COc1ccc(Nc2cc(C)nc(NCc3ccccc3)n2)cc1 | 6.51 |
| COc1cc(-c2nc(-c3ccc(Sc4ccccc4)cc3)c(-c3ccccc3)[nH]2)cc(OC)c1O | 6.13 |
| Cc1cc(Nc2cccc(F)c2)nc(NCc2ccccc2)n1 | 6.26 |
| COc1ccc2c(c1)OC(O)(C(F)(F)C(F)(F)F)CC2=O (stereo not given) | 6.43 |
| Cc1ccc(-c2cc3nc4c(c(O)n3n2)CCCC4)cc1 | 5.75 |
| CC(=O)NCCc1nc2ccccc2n1Cc1ccc(C(C)C)cc1 | 5.83 |
| OCCNc1nc(Nc2ccc(Cl)c(Cl)c2)nc2ccccc12 | 6.38 |
| COc1nc(Nc2ccc(C(C)C)cc2)nc(OC)n1 | 6.44 |
| CCOC(=O)c1cnc2ccc(OC)cc2c1Nc1ccc(N2CCN(C)CC2)cc1 | 6.11 |
| COc1ccc(C(=O)C(CCC(CNC(C)(C)C)C(=O)c2ccc(OC)cc2)CNC(C)(C)C)cc1 (stereo not given) | 5.80 |
| CC(C)CCNCC(O)Cn1c2ccccc2c2ccccc21 (stereo not given) | 6.04 |
| Cc1c(C)n(Cc2ccc(F)cc2)c2ccc(C(=O)NCc3ccco3)cc12 | 7.08 |
| CCOc1cc2c(cc1OCC)C(c1cc(Cl)ccc1O)NCC2 (stereo not given) | 5.77 |
| CCOC(=O)c1cnc2ccc(Cl)cc2c1NCCCN(C)C | 5.93 |
| Cc1cc(C)c2c(c1)OCN(Cc1ccccc1Cl)C2 | 6.53 |

| Compound | pIC50 |
| --- | --- |
| COc1cc(OC)c(N(C)C(=O)c2cc3c(s2)-c2ccccc2S(=O)(=O)C3)cc1Cl | 6.53 |
| CCOc1ccccc1NC(=O)CN1CCN(C(=O)c2ccco2)CC1 | 5.54 |
| c1ccc2c(NCCc3c[nH]c4ccccc34)c3ccccc3nc2c1 | 6.70 |
| O=C1c2ccccc2C2=Nc3ccccc3SC(c3cccc(F)c3)C12 (stereo not given) | 6.12 |
| Cc1cc(NC(=O)C2c3ccccc3C(=O)N(CC(C)C)C2c2cccs2)no1 (stereo not given) | 6.80 |
| Cc1ccc(Cn2c(N3CCC(C(=O)NCc4cccs4)CC3)nc3ccccc32)cc1 | 6.08 |
| CCOc1cc2c(cc1OCC)C(c1cc(C)c(O)c(C)c1)NCC2 (stereo not given) | 6.18 |
| O=C1CC(O)(C(F)(F)C(F)(F)F)Oc2ccccc21 (stereo not given) | 5.99 |
| Cc1ccc2nc(C)cc(Nc3cccc(C(F)(F)F)c3)c2c1 | 5.86 |
| CCOc1cccc2sc(N(Cc3cccnc3)C(=O)C3CCCCC3)nc12 | 5.57 |
| CC(C)c1ccc(CNCC(O)c2ccccc2)cc1 (stereo not given) | 5.97 |
| CC1CC(C)CN(C(=O)c2ccc(Cl)cc2Cl)C1 (stereo not given) | 5.73 |
| COc1ccccc1CNC(=O)C1c2ccccc2C(=O)N(CC(C)C)C1c1cccs1 (stereo not given) | 5.94 |
| CCOc1cc2c(cc1OCC)C(c1cc(Cl)c(O)c(OCC)c1)NCC2 (stereo not given) | 5.79 |
| OC(CNC1CCCC1)Cn1c2ccccc2c2ccccc21 (stereo not given) | 6.34 |
| CCc1ccc(Nc2cc(C)c3ccc(O)cc3n2)cc1 | 6.50 |
| CCN(CC)c1cc(C)c2cc(NC(=O)c3cccc(OC)c3)ccc2n1 | 5.56 |
| COc1ccc(C(O)(CCC(C)C)C(CN2CCOCC2)c2ccc(Cl)cc2)cc1 (stereo not given) | 5.45 |
| CCCCCCn1c(=N)n(CC(O)COc2cccc(C)c2)c2ccccc21 (stereo not given) | 5.74 |
| Cc1ccc(NC(=O)Nc2cccc(Cl)c2)cc1F | 5.92 |
| CC(C)OCc1cc(CN2CCN(c3cccc(Cl)c3)CC2)c(O)c2ncccc12 | 6.24 |
| Oc1ccc(Br)cc1CN1CCN(Cc2cccc(F)c2)CC1 | 5.89 |
| COc1ccc(-c2cc(=O)oc3c4c(ccc23)OCN(Cc2ccc(F)cc2)C4)cc1 | 6.07 |

| Compound | pIC50 |
| --- | --- |
| CSc1ccccc1C(=O)Nc1nc(-c2ccccn2)cs1 | 5.75 |
| CC(O)(c1ccc(Cl)cc1)C(CN1CCCCC1)c1ccccc1 (stereo not given) | 6.50 |
| CCCCc1ccc(NS(=O)(=O)c2cc3c4c(c2)CCN4C(=O)CC3)cc1 | 5.43 |
| CCCOCc1cc(CN2CCN(c3cccc(Cl)c3)CC2)c(O)c2ncccc12 | 6.02 |
| CCOc1ccc2c(c1)CN(Cc1ccc(Cl)cc1)CO2 | 6.21 |
| CCOc1ccccc1CNC(=O)C1c2ccccc2C(=O)N(CC(C)C)C1c1cccs1 (stereo not given) | 5.91 |
| CC(C)(C)c1ccc2c(c1)CN(Cc1ccc(Cl)cc1)CO2 | 6.71 |
| CCCCC(O)(c1ccc(Cl)cc1)C(CN1CCOCC1)c1ccc(Cl)cc1 (stereo not given) | 5.45 |
| O=c1nc(C=Cc2ccc(Cl)cc2)oc2ccccc12 | 5.93 |
| O=C(NCc1ccco1)C1CCN(S(=O)(=O)c2ccc(Br)cc2)CC1 | 6.05 |
| c1ccc(CNc2nc(Nc3ccccc3)nc3ccccc23)cc1 | 6.05 |
| CN(C)c1ccc(N2C(N)=NC(N)=NC2(C)C)cc1 | 6.80 |
| CCOc1ccc(Nc2ccnc3cc(Cl)ccc23)cc1 | 6.11 |
| CCOC(=O)c1ccc2nc(-c3ccccc3)cc(O)c2c1 | 6.14 |
| Clc1ccc2[nH]c3c(NCCCN4CCOCC4)ncnc3c2c1 | 6.21 |
| COc1ccc(Nc2nc(NCc3ccccc3)c3ccccc3n2)cc1 | 7.04 |
| COc1ccc(OC)c(C2C3=C(CC(C)(C)CC3=O)N(c3ccc(Cl)c(Cl)c3)C3=C2C(=O)CC(C)(C)C3)c1 | 5.53 |
| Cc1cccc(N2C(=O)C3C(C2=O)C2(c4ccccc4)C(=O)C3(c3ccccc3)C(c3ccc4c(c3)OCO4)=C2c2ccc3c(c2)OCO3)c1 (stereo not given) | 5.77 |
| COc1ccc2c(c1OC)C(=O)N1c3ccccc3N=C(c3ccc(C)cc3)CC21 (stereo not given) | 5.77 |
| Oc1c(CN2CCN(c3ccccc3F)CC2)cc(Br)c2cccnc12 | 5.87 |
| OC(CNCc1ccccc1)Cn1c2ccccc2c2ccccc21 (stereo not given) | 5.96 |
| COc1ccc(CCNC(=O)c2cc(S(=O)(=O)N3CC(C)CC(C)C3)ccc2Sc2ccc(F)cc2)cc1OC (stereo not given) | 5.88 |
| Cc1ccc(F)cc1NC(=O)c1cc(Cl)ccc1Nc1ccccc1 | 6.25 |

| Compound | pIC50 |
| --- | --- |
| CCOc1ccc(Nc2c3ccccc3nc3ccccc23)cc1 | 5.78 |
| CCOc1ccc2nc(C)cc(Nc3ccc(Br)cc3)c2c1 | 6.10 |
| CCCCc1c(C)nc2c(OC)cccc2c1O | 5.85 |
| Clc1ccc2c(N3CCCC3)ccnc2c1 | 5.89 |
| COc1cc2c3cc1Oc1c(OC)c(OC)cc4c1C(Cc1ccc(O)c(c1)Oc1ccc(cc1)CC3N(C)CC2)N(C)CC4 (stereo not given) | 6.16 |
| COc1ccc(C2Sc3ccccc3N=C3C2=C(O)c2ccccc23)cc1 (stereo not given) | 6.14 |
| CCCCCCC(O)(c1ccc(F)cc1)C(CN1CCOCC1)c1ccccc1 (stereo not given) | 5.47 |
| Cc1ccc(C)c(-c2csc(Nc3ccc(C)c(C)c3)n2)c1 | 5.98 |
| CCOc1c(Br)cc(C2C(C(=O)OC)=CN(C)C=C2C(=O)OC)cc1OC | 6.10 |
| CCOc1ccc(CCNC(=O)c2cccs2)cc1OCC | 5.57 |
| CCCN(CCC)CCCNC(=O)c1cc2c(-c3ccc(OC)c(OC)c3)nn(C)c2s1 | 5.94 |
| Cc1cc(N2CCN(C3CCCC3)CC2)n2c(nc3ccccc32)c1C#N | 6.04 |
| CCCCCn1c(=N)n(CC(O)COc2cccc(C)c2)c2ccccc21 (stereo not given) | 5.63 |
| Cc1ccc(Nc2nc(NCCO)c3ccccc3n2)cc1C | 6.01 |
| CCCCOc1ccc(C(=O)Nc2cc(C)on2)cc1 | 6.11 |
| CC1CCCCN1CCCNC(=O)c1ccc2c(c1)sc1nc(-c3ccc(F)cc3)cn12 (stereo not given) | 6.25 |
| COc1ccccc1N1C(=N)SC(=Cc2ccc(OCc3ccccc3F)cc2)C1=O | 6.09 |
| CCc1ccc(Nc2cc(C)nc3nc(C)nn23)cc1 | 6.16 |
| COc1ccc(NC(=O)C2c3ccccc3C(=O)N(CC(C)C)C2c2cccs2)cc1 (stereo not given) | 5.90 |
| CCOC(=O)C1=CN(C)C=C(C(=O)OCC)C1c1cc(Br)c(OCC)c(OC)c1 | 6.34 |
| C=CCc1c(C)nc2ccccc2c1O | 5.83 |
| CN1CCN(c2nc(Nc3ccc(O)cc3)nc3ccccc23)CC1 | 5.85 |
| CCCCN(CCCC)S(=O)(=O)c1ccc(NC(=O)c2ccco2)cc1 | 5.94 |
